40 compounds from ChEMBL document CHEMBL1124619, “Phencyclidine-like effects of tetrahydroisoquinolines and related compounds” (J Med Chem, 1989) can be followed below.

The target in assay [1] is T1, Sigma non-opioid intracellular receptor 1 (Rattus norvegicus, UniProt Q9R0C9). The experiment in a line: Inhibition of [3H]- N-allylnormetazocine ([3H]NANM) binding to sigma receptor.
Assay [2] deals with Glutamate receptor ionotropic, NMDA 2C (Rattus norvegicus) (UniProt Q00961). The experiment in a line: (§1) Compound was tested for induction of phencyclidine (PCP) like ataxia behavior. The class given is functional.
For assay [3] the target is unchanged. Briefly: (§2) Compound was tested for induction of phencyclidine (PCP) like stereotyped behavior. The class given is functional.
Assay [4] has as its target T2, Glutamate receptor ionotropic, NMDA 2C (Rattus norvegicus, UniProt Q00961). Briefly: Inhibition of [3H]1-[1-(2-thienyl) piperidine ([3H]TCP) binding to phencyclidine receptor; NI = No detectable inhibition of binding at 30 uM.
Assay [5] has as its target T1, Sigma non-opioid intracellular receptor 1. Briefly: Inhibition of [3H]- N-allylnormetazocine ([3H]-NANM) binding to sigma receptors; NI = No detectable inhibition of binding at 30 uM.
Assay [6] deals with T2, Glutamate receptor ionotropic, NMDA 2C. Briefly: Inhibition of [3H]1-[1-(2-thienyl) piperidine ([3H]TCP) binding to PCP receptor.
For assay [7] the target is unchanged. Briefly: Inhibition of [3H]1-[1-(2-thienyl) piperidine ([3H]TCP) binding to PCP receptor; NI = No detectable inhibition of binding at 30 uM.
For assay [8], the species on record is Rattus norvegicus. The assay is described as §2. Format: functional.
The species entered for assay [9] is Rattus norvegicus. Described as §1. The class given is functional.

T2 sequence (Q00961 whole entry): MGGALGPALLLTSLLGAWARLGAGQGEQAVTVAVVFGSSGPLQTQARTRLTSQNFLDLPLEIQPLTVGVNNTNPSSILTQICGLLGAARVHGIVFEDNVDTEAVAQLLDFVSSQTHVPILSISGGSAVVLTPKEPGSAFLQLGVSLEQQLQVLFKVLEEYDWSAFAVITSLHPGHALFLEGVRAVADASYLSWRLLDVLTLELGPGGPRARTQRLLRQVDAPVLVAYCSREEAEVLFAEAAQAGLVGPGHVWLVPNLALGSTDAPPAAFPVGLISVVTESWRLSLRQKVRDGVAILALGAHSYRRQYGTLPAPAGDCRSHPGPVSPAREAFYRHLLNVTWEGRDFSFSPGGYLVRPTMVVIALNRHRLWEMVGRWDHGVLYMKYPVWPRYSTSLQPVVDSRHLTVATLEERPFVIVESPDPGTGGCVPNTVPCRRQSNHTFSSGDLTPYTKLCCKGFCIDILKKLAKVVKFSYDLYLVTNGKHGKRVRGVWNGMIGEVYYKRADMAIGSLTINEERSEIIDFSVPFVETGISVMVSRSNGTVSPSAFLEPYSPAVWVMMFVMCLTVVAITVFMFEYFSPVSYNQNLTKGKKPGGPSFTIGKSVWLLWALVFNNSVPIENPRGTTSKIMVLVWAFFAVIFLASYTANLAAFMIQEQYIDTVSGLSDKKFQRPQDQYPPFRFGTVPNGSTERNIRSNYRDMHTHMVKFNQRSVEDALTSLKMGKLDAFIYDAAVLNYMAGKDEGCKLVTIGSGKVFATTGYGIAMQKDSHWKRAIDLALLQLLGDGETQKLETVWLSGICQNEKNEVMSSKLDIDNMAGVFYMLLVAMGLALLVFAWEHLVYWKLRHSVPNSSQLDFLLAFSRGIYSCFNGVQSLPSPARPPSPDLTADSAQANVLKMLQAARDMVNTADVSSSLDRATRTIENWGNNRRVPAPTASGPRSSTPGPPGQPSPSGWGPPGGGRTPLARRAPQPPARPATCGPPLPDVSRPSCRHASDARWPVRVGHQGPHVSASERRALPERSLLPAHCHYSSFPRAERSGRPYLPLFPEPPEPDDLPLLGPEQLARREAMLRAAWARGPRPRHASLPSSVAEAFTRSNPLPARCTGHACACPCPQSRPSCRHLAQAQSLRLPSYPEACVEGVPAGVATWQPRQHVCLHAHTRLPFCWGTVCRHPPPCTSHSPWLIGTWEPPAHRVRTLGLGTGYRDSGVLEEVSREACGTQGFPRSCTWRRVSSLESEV
Glutamate receptor ionotropic, NMDA 2C (Rattus norvegicus), sequence (Q00961 20-1237 limits assumed): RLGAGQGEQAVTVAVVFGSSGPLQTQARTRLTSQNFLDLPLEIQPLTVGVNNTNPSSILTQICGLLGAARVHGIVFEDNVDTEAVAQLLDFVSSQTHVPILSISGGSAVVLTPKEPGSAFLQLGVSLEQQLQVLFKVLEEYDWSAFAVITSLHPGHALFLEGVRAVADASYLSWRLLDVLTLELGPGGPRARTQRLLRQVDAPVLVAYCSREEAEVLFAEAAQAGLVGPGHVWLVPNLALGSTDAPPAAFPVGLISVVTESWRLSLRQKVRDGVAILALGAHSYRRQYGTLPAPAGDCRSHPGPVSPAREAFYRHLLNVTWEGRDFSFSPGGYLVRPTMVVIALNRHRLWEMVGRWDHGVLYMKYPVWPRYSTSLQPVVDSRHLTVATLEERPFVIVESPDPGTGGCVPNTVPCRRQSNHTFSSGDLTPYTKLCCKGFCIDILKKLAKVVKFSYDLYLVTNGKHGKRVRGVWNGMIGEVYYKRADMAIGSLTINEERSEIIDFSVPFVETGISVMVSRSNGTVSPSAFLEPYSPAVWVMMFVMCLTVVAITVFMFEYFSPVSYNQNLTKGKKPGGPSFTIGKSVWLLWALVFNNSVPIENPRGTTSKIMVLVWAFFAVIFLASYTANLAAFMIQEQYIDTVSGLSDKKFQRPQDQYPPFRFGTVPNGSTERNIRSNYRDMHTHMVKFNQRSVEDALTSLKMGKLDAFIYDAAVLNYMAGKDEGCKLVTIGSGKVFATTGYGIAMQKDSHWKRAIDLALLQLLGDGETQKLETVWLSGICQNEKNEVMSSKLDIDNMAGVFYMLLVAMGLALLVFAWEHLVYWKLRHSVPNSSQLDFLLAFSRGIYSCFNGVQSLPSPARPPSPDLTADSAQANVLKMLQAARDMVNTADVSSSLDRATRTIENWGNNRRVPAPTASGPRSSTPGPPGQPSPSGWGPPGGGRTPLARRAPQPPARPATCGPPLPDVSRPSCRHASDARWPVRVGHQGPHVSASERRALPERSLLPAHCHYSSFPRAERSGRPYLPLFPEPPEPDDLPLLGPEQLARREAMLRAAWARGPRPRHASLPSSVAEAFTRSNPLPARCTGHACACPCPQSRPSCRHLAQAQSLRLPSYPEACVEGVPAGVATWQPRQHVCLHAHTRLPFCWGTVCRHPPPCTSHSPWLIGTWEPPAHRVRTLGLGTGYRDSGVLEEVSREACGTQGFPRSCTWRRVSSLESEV
T1 sequence (Q9R0C9 whole entry): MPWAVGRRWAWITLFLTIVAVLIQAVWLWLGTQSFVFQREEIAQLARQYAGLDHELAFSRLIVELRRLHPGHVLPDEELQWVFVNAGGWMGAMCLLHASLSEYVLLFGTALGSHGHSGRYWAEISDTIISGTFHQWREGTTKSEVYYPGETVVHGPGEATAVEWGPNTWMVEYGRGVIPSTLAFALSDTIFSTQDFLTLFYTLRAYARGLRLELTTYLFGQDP

The IC50 is the midpoint of a concentration-inhibition curve. A low value points to higher potency. `CC1Cc2ccccc2CN1Cc1ccccc1` (stereo unspecified): in assay [1], the half-maximal inhibitory concentration (IC50) was 3.2 µM.
What is called ED50 is the midpoint of the dose-response relation. Read a high ED50 as a need for a large dose. For `c1ccc(CC2NCCc3ccccc32)cc1` (stereo unspecified), the median effective dose (ED50) in assay [2] amounted to 42 mg/kg; in assay [3] it was 26 mg/kg. Also, the IC50 in assay [1] worked out at 0.43 µM.
Take `c1ccc(C2NCCCc3ccccc32)cc1` (stereo unspecified): the half-inhibitory concentration (IC50) result in assay [4] and in assay [5] was “Not Active” in each case.
Turning to `COc1ccc(C2NCCc3ccccc32)cc1` (stereo unspecified), the 50% inhibitory concentration (IC50) in assay [1] was 2.2 µM; in assay [6], 2.5 µM.
As for `CC1NCCc2ccsc21` (stereo unspecified), the IC50 in assay [1] is 11 µM; in [6] it was over 30 µM.
For the compound `c1ccc(C2NCc3ccccc32)cc1` (stereo unspecified), the 50% inhibitory concentration (IC50) in assay [1] was over 30 µM.
Consider `c1ccc(-c2cccc3c2CNCC3)cc1`, for which the results for the ED50 in [2] and in [3] were 44 mg/kg and 28 mg/kg, respectively. The compound further registered a half-inhibitory concentration (IC50) in [1] of 2.7 µM.
For the compound `Cc1ccc(C2NCCc3ccccc32)cc1` (stereo unspecified), in assay [1], the IC50 is 5.6 µM.
Turning to `C=CCN1CCc2ccsc2C1c1ccccc1` (stereo unspecified), the IC50 is 20 µM in assay [1] and “Not Active” in assay [7].
In the case of `c1ccc(C2NCCc3ccccc32)cc1` (stereo unspecified), the 50% effective dose (ED50) in assay [2] is over 20 mg/kg; in assay [3] it was 25 mg/kg.
`CCN1CCc2ccccc2C1c1ccccc1` (stereo unspecified) displayed a half-inhibitory concentration (IC50) in [1] of 1.3 µM.
For the compound `CC(C)CC1NCCc2ccccc21` (stereo unspecified), the IC50 in assay [1] was 5 µM.
With `c1ccc2c(c1)CCNC21CCCCC1`, the IC50 entry in assay [4] and in [5] was “Not Active” in each case.
`CC1Cc2ccccc2C(C)N1` (stereo unspecified) came in with a 50% inhibitory concentration (IC50) in assay [1] of 15 µM.
Turning to `CN1CCc2ccccc2C1`, in assay [1], the 50% inhibitory concentration (IC50) came out at 2.7 µM.
`c1ccc2c(c1)CCNC2C1CCCCC1` (stereo unspecified): the IC50 in assay [1] amounted to 11 µM.
`C=CCN1CCc2ccccc2C1C1CCCCC1` (stereo unspecified) yielded a concentration for half-maximal inhibition (IC50) in assay [1] of 3.1 µM.
For the compound `CC(C)C1c2sccc2CCN1C` (stereo unspecified), the IC50 in assay [1] was 7.8 µM; in assay [6], 17 µM.
In assay [1], `c1csc(C2(N3CCCCC3)CCCCC2)c1` [TENOCYCLIDINE] came in with a concentration for half-maximal inhibition (IC50) of 0.24 µM.
Regarding `c1ccc(CN2CCc3ccccc3C2)cc1`, the results for the IC50 in assay [1] and in assay [4] were 7.8 µM and “Not Active”, respectively.
In assay [1], `C=CCN1CC[C@]2(C)c3ccccc3CC1[C@@H]2C` returned an IC50 of 0.05 µM.
Take `c1ccc(C2(N3CCCCC3)CCCCC2)cc1` [PHENCYCLIDINE]: the 50% effective dose (ED50) in [2] is 6.5 mg/kg; in assay [3], 4.7 mg/kg. Further, in [1], the IC50 is 0.53 µM.
`CC1Cc2ccccc2CN1C` (stereo unspecified) gave an IC50 in assay [1] of 2.6 µM.
`CC(C)C1NCCc2ccsc21` (stereo unspecified): the results for the IC50 in [1] and in assay [6] were 3.8 µM and 17 µM, respectively.
`C=CCN1CCc2ccsc2C1C(C)C` (stereo unspecified): the IC50 worked out at 5 µM in assay [1] and 8.5 µM in assay [6].
As to `C=CCN1C(C)Cc2ccccc2C1C` (stereo unspecified), the 50% inhibitory concentration (IC50) in assay [1] is 1.6 µM.
Still for that read-out and setting: the value for `c1ccc2c(c1)CCNC2c1ccc2ccccc2c1` (stereo unspecified) was 10 µM.
Turning to `CCN1CCc2ccsc2C1C(C)C` (stereo unspecified), the concentration for half-maximal inhibition (IC50) is 12 µM in assay [6] and “Not Active” in [5].
As for `Clc1ccc(C2NCCc3ccccc32)cc1` (stereo unspecified), the IC50 in assay [1] was determined as 3.4 µM.
In turn, `c1ccc(C2CNCc3ccccc32)cc1` (stereo unspecified) gave a half-inhibitory concentration (IC50) in [1] of 4.2 µM.
Compound `C=CCN1CCc2ccccc2C1c1ccccc1` (stereo unspecified) showed an IC50 in assay [1] of 1.3 µM.
`CCOCCN1CCc2ccccc2C1c1ccccc1` (stereo unspecified): the figures for the IC50 in [1] and in assay [6] were 5.4 µM and 8.2 µM, respectively.
Turning to `c1csc(C2NCCc3ccccc32)c1` (stereo unspecified), the IC50 in assay [1] turned out to be 3.8 µM; in assay [6], 7.6 µM. This compound also had an ED50 in assay [8] of 54 mg/kg.
The compound `CC(C)C1NCCc2ccccc21` (stereo unspecified) displayed an IC50 in [1] of 2.5 µM.
Consider `COc1ccccc1-c1cccc2c1CNCC2`, for which the IC50 in assay [1] is 1.8 µM; in assay [6], 0.9 µM. The values for the ED50 in [8] and in [9] were 20 mg/kg and 22 mg/kg, respectively.
On to `c1ccc(C2NCCc3ccsc32)cc1` (stereo unspecified), for which the IC50 in assay [1] came out at 6.3 µM; in assay [6], 8.8 µM. Moreover, the ED50 in assay [8] and in assay [9] was over 50 mg/kg throughout.
Consider `C=CCN1CCc2ccccc2C1c1ccc2ccccc2c1` (stereo unspecified), for which the IC50 in [1] is 11 µM; in assay [4] it was “Not Active”.
In assay [1], `CN1CCc2ccccc2C1c1ccccc1` (stereo unspecified) yielded an IC50 of 2.9 µM.
For `Fc1ccc(C2NCCc3ccccc32)cc1` (stereo unspecified), the ED50 in assay [2] came out at 49 mg/kg; in [3], 38 mg/kg. The IC50 in [1] came to 1.8 µM.
As for `c1ccc(C2Cc3ccccc3CN2)cc1` (stereo unspecified), the values for the ED50 in assay [2] and in [3] were 18 mg/kg and 19 mg/kg, respectively. In addition, the IC50 in assay [1] came out at 2.6 µM.
